Assays:
Assay type in all cases: cell-based
[1] = molecular target: T1, pool of cells with OR5A1, OR5A2, OR5AN1, OR6Y1, OR10G4, OR10G7 or OR10G9 (Homo sapiens, UniProt Q8NGN6); test: Selection of cognate-receptor cells from a pool of OR-expressing cells with the target ligand and puromycin; settings: 1 μM eugenol, puromycin 1 μg/ml, pool of 7 OR transfections
T1 construct: expressed in transfected cells; host or cells: HEK293T stably expressing RTP1S and RTP2; 7 separate transfections pooled
T1 sequence (Q8NGN6 1-311): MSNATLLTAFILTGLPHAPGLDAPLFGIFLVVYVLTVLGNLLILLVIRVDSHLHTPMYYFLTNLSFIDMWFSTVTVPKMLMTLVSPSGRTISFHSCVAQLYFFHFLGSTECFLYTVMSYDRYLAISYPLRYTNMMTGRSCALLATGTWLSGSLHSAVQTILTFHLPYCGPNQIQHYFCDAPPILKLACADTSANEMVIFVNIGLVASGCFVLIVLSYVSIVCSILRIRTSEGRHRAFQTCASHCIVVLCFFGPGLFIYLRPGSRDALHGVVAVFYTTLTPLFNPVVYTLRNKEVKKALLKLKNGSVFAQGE
Experimental: (§1) For many ligands the cognate OR receptors are not known (“orphan receptors”), or it is unknown among a pool of receptors, which one has the best affinity for a ligand of interest, e.g. a perfumery note of particular interest. Thus, the ligand-induced selection pressure can be used to enrich a specific OR-expressing cell from a pool of OR-expressing cells in the presence of a ligand of interest. HEK293T cells stably expressing RTP1S and RTP2 were seeded into 7 wells of 6-well plates at 330,000 cells/well.
(§2) The next day, the cells of each well were transfected with 2 μg of a PvuI-linearized pGL4.29-CRE-Puro-Hygro-OR construct harboring one of the receptors OR5A1 (NCBI Genbank Gene ID: 219982), OR5A2 (NCBI Genbank Gene ID: 219981), OR5AN1 NCBI Genbank Gene ID: 390195, SEQ ID NO: 70), OR6Y1 (NCBI Genbank Gene ID: 391112), OR10G4 (NCBI Genbank Gene ID: 390264, SEQ ID NO: 72), OR10G7 (NCBI Genbank Gene ID: 390265, SEQ ID NO: 71), or OR10G9 (NCBI Genbank Gene ID: 219870). 24 h after transfection, the cells of all 7 transfections were harvested and pooled. 350 cells of this pool of cells with different OR genes inserted were then seeded into each well of seven 96-well plates.
(§3) 3 days later, cells were stimulated with ligands for either OR5AN1 (10 μM musk ketone), OR10G7 (1 μM eugenol), or OR10G4 (100 μM vanitrope). One plate was treated with DMSO only. 6h after the addition of the OR ligands, puromycin was added to each plate at a final concentration of 1 μg/ml. On every day during the following week, the medium on all plates was replaced with fresh medium containing the corresponding ligand and puromycin. The plates were then searched for wells containing only a single colony of puromycin-resistant cells. The cells of those colonies were transferred to larger plates and grown until they had multiplied to about 8 Mio cells. The genomic DNA of 2 Mio cells of each clone were isolated using the Puregene kit according to the manufacturer's protocol. […]

OR5A2 (clone 3) = molecular target: T2, OR5A2 (clone 3) (Homo sapiens, UniProt Q8NGI9); test: Ligand-induced puromycin resistance of isolated clone 3 containing OR5A2; settings: clone 3 (OR5A2), 11 concentrations of puromycin, co-treated with olfactory ligands
T2 construct: expressed in transfected cells; clone 3 selected with musk ambrette and puromycin
T2 sequence (Q8NGI9 with tags, fused parts or gaps): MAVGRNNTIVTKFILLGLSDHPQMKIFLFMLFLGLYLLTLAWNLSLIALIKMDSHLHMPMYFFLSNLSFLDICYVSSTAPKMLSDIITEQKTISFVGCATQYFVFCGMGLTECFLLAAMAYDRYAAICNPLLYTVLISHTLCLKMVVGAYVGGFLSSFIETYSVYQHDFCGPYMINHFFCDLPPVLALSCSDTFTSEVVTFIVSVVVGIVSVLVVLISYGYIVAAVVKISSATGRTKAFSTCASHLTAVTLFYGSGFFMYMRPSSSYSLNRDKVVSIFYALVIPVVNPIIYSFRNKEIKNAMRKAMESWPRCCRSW

[2] = molecular target: T3, pool of cells with OR5A1, OR5A2, OR5AN1, OR6Y1, OR10G4, OR10G7 or OR10G9 (Homo sapiens, UniProt Q8NGI8); test: Selection of cognate-receptor cells from a pool of OR-expressing cells with the target ligand and puromycin; settings: 10 μM musk ketone, puromycin 1 μg/ml, pool of 7 OR transfections
T3 construct: expressed in transfected cells; host or cells: HEK293T stably expressing RTP1S and RTP2; 7 separate transfections pooled
T3 sequence (Q8NGI8 1-311): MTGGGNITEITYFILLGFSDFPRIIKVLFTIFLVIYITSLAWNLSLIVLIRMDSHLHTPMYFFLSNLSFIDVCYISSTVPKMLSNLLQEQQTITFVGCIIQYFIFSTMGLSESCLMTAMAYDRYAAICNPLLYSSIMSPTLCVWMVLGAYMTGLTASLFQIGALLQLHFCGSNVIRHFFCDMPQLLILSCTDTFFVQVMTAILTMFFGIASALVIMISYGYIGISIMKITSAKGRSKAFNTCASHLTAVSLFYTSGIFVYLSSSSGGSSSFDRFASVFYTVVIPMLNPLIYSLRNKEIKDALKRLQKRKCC
Experimental: as §1, §2, §3

SMILES | clones selected with the ligand that contained OR10G7 [1] | puromycin resistance of clone 3 in presence of odorant (OR5A2 (clone 3)) | clones selected with the ligand that contained OR5AN1 [2] [clones]
C=CCc1ccc(O)c(OC)c1 [eugenol] | 8 out of 8 | no increased resistance | 
CC(=O)c1c(C)c([N+](=O)[O-])c(C(C)(C)C)c([N+](=O)[O-])c1C [musk ketone] |  |  | 9
